These results are taken from patent US4564641A, “Substituted 1-oxo-2-phenyl-2-(2-alkylaminoethyl)-1,2,3,4-tetrahydronaphthalenes, their preparation and their use” (BASF Aktiengesellschaft, priority 1982, dated 1986).

Where a name gives a salt, the structure may show the parent alone. Read-outs that look alike come from different tables or passages of the source.

This assay has as its system reserpine-induced hypothermia. As to the kind of experiment: inhibition of reserpine-induced hypothermia in mice (antidepressant action). The class given is in vivo, mice (Swiss strain). The following applies: for ED50 (antidepressant action, dose which inhibits the reserpine-induced hypothermia by 50%) / ED50: body temperature two hours after reserpine; for ED50: Mus musculus. On the procedure: The antidepressant action of the substances according to the invention was investigated using the following model:
2.15 mg/kg of reserpine administered subcutaneously to male mice (Swiss strain) weighing 20-26 g lowers the body temperature by an average of 3° C., measured two hours after administration of the reserpine and at an ambient temperature of 20°-22° C. Antidepressants inhibit this hypothermia, the inhibition being dose-dependent. The test substances are administered orally, 60 minutes before the administration of reserpine.
The dose which inhibits the reserpine-induced hypothermia by 50%, ie. the ED50, is determined from the linear regression between log dose (mg/kg) and relative decrease in hypothermia.
In some cases, the activity is substantially greater than that of imipramine (for Example 18c, by a factor of 72).

Setting [1] is: male mice (Swiss strain), oral, 60 minutes before 2.15 mg/kg reserpine s.c.
[2] abbreviates: po, read-out: ED50 (antidepressant action, dose which inhibits the reserpine-induced hypothermia by 50%), male mice (Swiss strain), oral, 60 minutes before 2.15 mg/kg reserpine s.c.
[3] abbreviates: male mice (Swiss strain), oral, 60 minutes before 2.15 mg/kg reserpine s.c., read-out: ED50 (antidepressant action, dose which inhibits the reserpine-induced hypothermia by 50%).

For the molecule `CN(C)CCC1(c2ccccc2)CCc2ccccc2C1=O` (racemic) [Example 18a, 1-oxo-2-phenyl-2-(2-dimethylaminoethyl)-1,2,3,4-tetrahydronaphthalene], the “ED50 (antidepressant action, dose which inhibits the reserpine-induced hypothermia by 50%)” value under setting [1] is listed as 0.85 mg/kg.

Consider `CN(C)CCC1(c2ccccc2)CCc2ccccc2C1=O` (racemic) [Example 18c, 1-oxo-2-phenyl-2-(2-dimethylaminoethyl)-1,2,3,4-tetrahydronaphthalene], for which the “ED50 (antidepressant action, dose which inhibits the reserpine-induced hypothermia by 50%)” value under setting [1] was determined as 0.09 mg/kg. The “activity greater than that of imipramine, by a factor of” value (ratio of ED50 to imipramine, oral, mice) amounted to 72.

Turning to `CN(C)CCC1(c2ccccc2)CCc2ccccc2C1=O` (centres unmarked) [Example 1, 1-oxo-2-phenyl-2-(2-dimethylaminoethyl)-1,2,3,4-tetrahydronaphthalene], under setting [2], the ED50 amounted to 0.14 mg/kg.

`Cc1cccc(C2(CCN(C)C)CCc3ccccc3C2=O)c1` (centres unmarked) [Example 2, 1-oxo-2-(3-tolyl)-2-(2-dimethylaminoethyl)-1,2,3,4-tetrahydronaphthalenehydrochloride]: the ED50 under setting [3] was found to be 6.8 mg/kg.

Consider `CN(C)CCC1(c2ccc(Cl)cc2)CCc2ccccc2C1=O` (centres unmarked) [Example 3, 1-oxo-2-(4-chlorophenyl)-2-(2-dimethylaminoethyl)-1,2,3,4-tetrahydronaphthalene], for which, under setting [3], the ED50 came to 4.6 mg/kg.

Regarding `CN(C)CCC1(c2ccc(F)cc2)CCc2ccccc2C1=O.Cl` (centres unmarked) [Example 5, 1-oxo-2-(4-fluorophenyl)-2-(2-dimethylaminoethyl)-1,2,3,4-tetrahydronaphthalene hydrochloride], the ED50 under setting [3] stood at 4.9 mg/kg.

Regarding `CN(C)CCC1(c2cccc(Cl)c2)CCc2ccccc2C1=O.Cl` (centres unmarked) [Example 8, 1-oxo-2-(3-chlorophenyl)-2-(2-dimethylaminoethyl)-1,2,3,4-tetrahydronaphthalene hydrochloride], the ED50 under setting [3] was found to be 5.2 mg/kg.

Take `CN(C)CCC1(c2ccccc2)CCc2c(Cl)cccc2C1=O` (centres unmarked) [Example 12, 1-oxo-5-chloro-2-phenyl-2-(2-dimethylaminoethyl)-1,2,3,4-tetrahydronaphthalene]: the ED50 under setting [3] is 0.9 mg/kg.

`COc1cccc(C2(CCN(C)C)CCc3ccccc3C2=O)c1.O=C(O)C(=O)O` (centres unmarked) [Example 14, 1-oxo-2-(3-methoxyphenyl)-2-(2-dimethylaminoethyl)-1,2,3,4-tetrahydronaphthalene hydrogen oxalate]: under setting [3], the ED50 was determined as 2.3 mg/kg.

Take `CN(C)CCCN1c2ccccc2CCc2ccccc21` [imipramine, reference compound]: the ED50 under setting [2] is 6.8 mg/kg.
